Reference: US7973072B2, “Substituted benzo-condensed cyclohexanone derivatives and the use thereof for medicament production” (Gruenenthal GmbH, priority 2005, dated 2011)

Legend:
[1] = biological target: T1, vanilloid receptor 1 (VR1/TRPV1) of the rat (Rattus norvegicus, UniProt O35433); experiment: FLIPR Ca2+ functional study on rat vanilloid receptor 1 (rat dorsal root ganglia cells or CHO K1 cells transfected with rat VR1); type: cell-based; conditions: for VR1 (rat) (% stimulation compared to 10 μM CP) / VR1 (rat) (% inhibition compared to 10 μM CP) / activation at 10 µM / inhibition at 10 µM: test compound 10 μM; for VR1 (rat) (% stimulation compared to 10 μM CP) / activation at 10 µM: % activation based on Ca2+ signal after 10 μM capsaicin (CP); for VR1 (rat) (% inhibition compared to 10 μM CP) / inhibition at 10 µM: suppression of Ca2+ current after 100 nM capsaicin, relative to maximum inhibition with 10 μM capsaicin (CP); for activation at 10 µM / inhibition at 10 µM: CHO-K1; for activation at 10 µM: read-out: VR1 (rat) (% stimulation compared to 10 μM CP); for inhibition at 10 µM: read-out: VR1 (rat) (% inhibition compared to 10 μM CP); for EC50 / IC50: FLIPR; for EC50: agonistic action; for IC50: antagonistic action
T1 construct: host or cells: rat dorsal root ganglia primary cells (Ia) or CHO K1 cells stably transfected with the rat VR1 gene (Ib)
Procedure: The agonistic or antagonistic action of the substances to be studied on the vanilloid receptor 1 (VR1/TRPV1) of the rat species can be determined with the following assay. In this assay, the Ca^2+ current through the receptor channel is quantified with the aid of a Ca^2+-sensitive dye (Fluo-4 type, Molecular Probes Europe BV, Leiden the Netherlands) in a fluorescent imaging plate reader (FLIPR, Molecular Devices, Sunnyvale, USA).
Complete medium: 50 ml HAMS F12 Nutrient Mixture (Gibco Invitrogen GmbH, Karlsruhe, Germany) with
10% by volume of FCS (fetal calf serum, Gibco Invitrogen GmbH, Karlsruhe, Germany, heat-inactivated);
2 mM L-glutamine (Sigma, Munich, Germany);
1% by weight of AA solution (antibiotic/antimycotic solution, PAA, Pasching, Austria) and 25 ng/ml of NGF medium (2.5 S, Gibco Invitrogen GmbH, Karlsruhe, Germany)
Cell culture plate: poly-D-lysine-coated, black 96-hole plates with a clear bottom (96 well black/clear plate, BD Biosciences, Heidelberg, Germany) are additionally coated with laminin (Gibco Invitrogen GmbH, Karlsruhe, Germany) by diluting laminin to a concentration of 100 μg/ml with PBS (Ca—Mg-free PBS, Gibco Invitrogen GmbH, Karlsruhe, Germany). Aliquots having a concentration of 100 μg/ml of laminin are withdrawn and stored at −20° C. The aliquots are diluted with PBS in a ratio of 1:10 to 10 μg/ml of laminin and in each case 50 μl of the solution are pipetted into a well of the cell culture plate. The cell culture plates are incubated at 37° C. for at least two hours, the supernatant solution is removed by suction and the wells are each washed twice with PBS. The coated cell culture plates are stored with supernatant PBS which is not removed until directly before the application of the cells.
The spinal column is removed from beheaded rats and placed directly into cold HBSS buffer (Hank's buffered saline solution, Gibco Invitrogen GmbH, Karlsruhe, Germany), i.e. placed in an ice bath, which has been admixed with 1% by volume of an AA solution (antibiotic/antimycotic solution, PAA, Pasching, Austria). The spinal column is severed longitudinally and removed from the spinal canal together with fasciae. Subsequently, the dorsal root ganglia (DRGs) are removed and in turn stored in cold HBSS buffer admixed with 1% by volume of an […]. The DRGs freed completely of blood residues and spinal nerves are in each case transferred to 500 μl of cold type 2 collagenase (PAA, Pasching, Austria) and incubated at 37° C. for 35 minutes. After addition of 2.5% by volume of trypsin (PAA, Pasching, Austria), incubation is continued at 37° C. for a further 10 minutes. After complete incubation, the enzyme solution is cautiously pipetted off and the remaining DRGs are each admixed with 500 μl of complete medium.
The DRGs are each suspended repeatedly, drawn through cannulas No. 1, No. 12 and No. 16 by means of a syringe and transferred to 50 ml Falcon tubes which are made up to 15 ml with complete medium. The contents of each Falcon tube are in each case filtered through a 70 μm Falcon filter insert and centrifuged at 1200 revolutions and room temperature for 10 minutes. The resulting pellet is in each case taken up in 250 μl of complete medium and the cell count is determined.
The number of cells in the suspension is adjusted to 3 times 10^5 per ml and in each case 150 μl of this suspension are added to one well of the cell culture plates coated as described above. In the incubator, the plates are left to stand at 37° C., 5% by volume of CO2 and 95% relative air humidity for two to three days.
Subsequently, the cells are laden with 2 μM Fluo-4 and 0.01% by volume of Pluronic F127 (Molecular Probes Europe BV, Leiden, the Netherlands) in HBSS buffer (Hank's buffered saline solution, Gibco Invitrogen GmbH, Karlsruhe, Germany) at 37° C. for 30 min, washed 3× with HBSS buffer and, after a further incubation of 15 minutes, used in the FLIPR assay at room temperature for Ca^2+ measurement. […]

[2] = biological target: T2, human vanilloid receptor 1 (VR1) (Homo sapiens, UniProt Q8NER1); experiment: FLIPR Ca2+ functional study on human vanilloid receptor 1 (CHO K1 cells transfected with human VR1); type: cell-based; conditions: for VR1 (human) (% inhibition compared to 10 μM CP) / inhibition at 10 µM: test compound 10 μM, suppression of Ca2+ current after 100 nM capsaicin, relative to maximum inhibition with 10 μM capsaicin (CP); for inhibition at 10 µM: CHO-K1, read-out: VR1 (human) (% inhibition compared to 10 μM CP); for EC50 / IC50: FLIPR; for EC50: agonistic action; for IC50: antagonistic action
T2 construct: expressed in transfected cells; host or cells: CHO K1 cells (ECACC), stably transfected
Procedure: Chinese hamster ovary cells (CHO K1 cells, European Collection of Cell Cultures (ECACC), England) are transfected stably with the human vanilloid receptor 1 (VR1) gene or the vanilloid receptor 1 (VR1) gene of the rat. For functional studies, these cells are plated out onto poly-D-lysine-coated black 96-well plates with a clear bottom (BD Biosciences, Heidelberg, Germany) in a density of 25 000 cells/well. The cells are incubated overnight at 37° C. and 5% CO2 in culture medium (Ham's Nutrient Mixture F12, Gibco Invitrogen GmbH, Karlsruhe, Germany) with 10% by volume of FBS (fetal bovine serum, Gibco Invitrogen GmbH, Karlsruhe, Germany), and 18 μg/ml of L-proline (Gibco Invitrogen GmbH, Karlsruhe, Germany). The next day, the cells are laden with 2 μM Fluo-4 and 0.01% by volume of Pluronic F127 (Molecular Probes Europe BV, Leiden, The Netherlands) in HBSS buffer (Hank's buffered saline solution, Gibco Invitrogen GmbH, Karlsruhe, Germany) at 37° C. for 30 min. Subsequently, the plates are washed 3 times with HBSS buffer and, after a further incubation of 15 minutes at room temperature, used for Ca^2+ measurement in the FLIPR assay. The Ca^2+-dependent fluorescence is measured before and after addition of substances λex=488 nm, λem=540 nm). The quantification is effected by measuring the highest fluorescence intensity (FC, fluorescence counts) over the time.
The FLIPR protocol consists of 2 substance additions. First, the compounds to be tested (10 μM) are pipetted onto the cells obtained according to Ia or Ib and the Ca^2+ current is compared with the control (capsaicin 10 μM). This gives rise to the result in % activation based on the Ca^2+ signal after addition of 10 μM capsaicin (CP). After incubation for 5 minutes, 100 nM capsaicin is applied and the current of Ca^2+ is likewise determined.
Desensitizing agonists and antagonists lead to a suppression in the Ca^2+ current. % inhibition is calculated compared to the maximum achievable inhibition with 10 μM capsaicin.
Triple determinations (n=3) are performed and they are repeated in at least 3 independent experiments (N=4).

T2 sequence (Q8NER1 whole entry): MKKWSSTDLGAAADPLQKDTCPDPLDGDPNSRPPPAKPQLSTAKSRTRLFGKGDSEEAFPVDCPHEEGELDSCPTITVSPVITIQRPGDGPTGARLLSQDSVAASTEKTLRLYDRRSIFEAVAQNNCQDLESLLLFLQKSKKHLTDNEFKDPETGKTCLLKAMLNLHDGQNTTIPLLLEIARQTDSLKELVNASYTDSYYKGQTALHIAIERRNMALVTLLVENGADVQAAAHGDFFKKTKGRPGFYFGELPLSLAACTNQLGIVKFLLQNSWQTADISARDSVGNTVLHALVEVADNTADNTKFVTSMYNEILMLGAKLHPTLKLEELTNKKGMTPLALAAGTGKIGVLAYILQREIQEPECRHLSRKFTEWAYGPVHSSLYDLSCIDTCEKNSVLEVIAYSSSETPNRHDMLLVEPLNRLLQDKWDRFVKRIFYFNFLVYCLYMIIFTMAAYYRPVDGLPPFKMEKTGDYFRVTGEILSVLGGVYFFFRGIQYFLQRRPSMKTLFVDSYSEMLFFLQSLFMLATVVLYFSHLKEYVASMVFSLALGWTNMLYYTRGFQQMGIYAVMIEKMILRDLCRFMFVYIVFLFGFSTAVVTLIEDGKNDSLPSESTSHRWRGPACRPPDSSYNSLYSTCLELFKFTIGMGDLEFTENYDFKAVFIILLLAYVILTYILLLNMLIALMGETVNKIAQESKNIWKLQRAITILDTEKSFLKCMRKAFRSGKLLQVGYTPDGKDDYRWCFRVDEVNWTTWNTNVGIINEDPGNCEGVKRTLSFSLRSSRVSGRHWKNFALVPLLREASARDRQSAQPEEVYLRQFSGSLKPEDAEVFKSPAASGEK
T1 sequence (O35433 whole entry): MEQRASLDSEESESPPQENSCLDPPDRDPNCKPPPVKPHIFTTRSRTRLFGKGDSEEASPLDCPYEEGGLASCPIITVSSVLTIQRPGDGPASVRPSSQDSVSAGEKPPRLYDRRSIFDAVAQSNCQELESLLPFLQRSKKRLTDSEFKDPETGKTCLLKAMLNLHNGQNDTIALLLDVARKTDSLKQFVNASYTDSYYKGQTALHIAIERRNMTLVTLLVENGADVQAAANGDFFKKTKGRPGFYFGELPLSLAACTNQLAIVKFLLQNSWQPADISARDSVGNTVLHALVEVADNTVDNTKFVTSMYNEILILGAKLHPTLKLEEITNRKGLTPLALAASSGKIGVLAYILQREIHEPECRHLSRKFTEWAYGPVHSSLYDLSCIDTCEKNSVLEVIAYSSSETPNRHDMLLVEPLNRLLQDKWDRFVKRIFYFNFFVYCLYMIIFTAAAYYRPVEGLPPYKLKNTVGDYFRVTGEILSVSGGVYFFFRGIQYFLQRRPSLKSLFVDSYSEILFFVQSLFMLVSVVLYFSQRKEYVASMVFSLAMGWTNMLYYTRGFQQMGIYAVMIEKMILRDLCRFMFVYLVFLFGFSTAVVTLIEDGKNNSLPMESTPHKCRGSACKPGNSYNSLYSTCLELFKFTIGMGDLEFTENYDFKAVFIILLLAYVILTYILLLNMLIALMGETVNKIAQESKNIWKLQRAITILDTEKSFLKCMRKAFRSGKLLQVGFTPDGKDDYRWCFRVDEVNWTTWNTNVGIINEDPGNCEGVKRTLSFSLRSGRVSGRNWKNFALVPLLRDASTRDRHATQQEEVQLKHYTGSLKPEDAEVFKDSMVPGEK

VR1 (rat) (% stimulation compared to 10 μM CP) [1] [%]	VR1 (rat) (% inhibition compared to 10 μM CP) [1] [%]	VR1 (human) (% inhibition compared to 10 μM CP) [2] [%]	melting point [°C]	activation at 10 µM [1] [%]	inhibition at 10 µM [1] [%]	EC50 [1] [µM]	inhibition at 10 µM [2] [%]	EC50 [2] [µM]	other results	Compound
17.64	61.99	69.64								(8-chloro-4-oxothiochroman-3,3-diyl)bis(methylene)bis(2-(trifluoromethyl)phenylcarbamate) [Example Compound 14]
			62 to 68							CC(C)(C)c1ccccc1NC(=O)OCC1(COC(=O)Nc2ccccc2C(C)(C)C)CSc2ccccc2C1=O [Example Compound 51, 3,3-bis(2-tert-butylphenylcarbamoyloxymethyl)thiochroman-4-one]
			72 to 78	48.5	83.9	25.4	9.79	9		O=C(Nc1ccccc1)OCC1(COC(=O)Nc2ccccc2)CS(=O)(=O)c2ccccc2C1=O [Example Compound 43, 3,3-bis(phenylcarbamoyloxymethyl)-1,1-dioxo-1λ^6-thiochroman-4-one]
			78 to 85	0	99.9		0		IC50 [1]: 5.7 µM; IC50 [2]: > 20 µM	CC(C)(C)c1ccc(NC(=O)OCC2(COC(=O)Nc3ccc(C(C)(C)C)cc3)CSc3ccccc3C2=O)cc1 [Example Compound 50, 3,3-bis(4-tert-butylphenylcarbamoyloxymethyl)thiochroman-4-one]
22.05	38.68	83.36								(7,8-dichloro-4-oxothiochroman-3,3-diyl)bis(methylene)bis(2-(trifluoromethyl)phenylcarbamate) [Example Compound 31]
			76 to 82							O=C(Nc1ccc(C(F)(F)F)cc1)OCC1(COC(=O)Nc2ccc(C(F)(F)F)cc2)CSc2ccccc2C1=O [Example Compound 52, 3,3-bis(4-trifluoromethylphenylcarbamoyloxymethyl)thiochroman-4-one]
				67	106	4.1	96.6	1.4		Cc1cccc2c1C(=O)C(COC(=O)Nc1ccccc1)(COC(=O)Nc1ccccc1)CS2 [Example Compound 40, (5-methyl-4-oxothiochroman-3,3-diyl)bis(methylene)bis(phenylcarbamate)]
47.96	107.78	88.98							IC50 [1]: 6.44 µM; IC50 [2]: 5.78 µM	(8-chloro-4-oxothiochroman-3,3-diyl)bis(methylene)bis(3-(trifluoromethyl)phenylcarbamate) [Example Compound 20]
				38	14	2.4	95	0.995		O=C(Nc1ccccc1)OCC1(COC(=O)Nc2ccccc2)CSc2ccccc2C1=O [Example Compound 41, 3,3-bis(phenylcarbamoyloxymethyl)thiochroman-4-one]
				0.81	40.3		23.8			Cc1cccc2c1SCC(CO)(COS(=O)(=O)c1ccc(C(C)(C)C)cc1)C2=O (stereo not shown) [Example Compound 13, 4-tert-butylbenzenesulfonic acid 3-hydroxymethyl-8-methyl-4-oxo-thiochroman-3-ylmethyl ester]
				25	96.8	13.8	38.5	6.4		Cc1cccc2c1C(=O)C(COC(=O)Nc1ccccc1)(COC(=O)Nc1ccccc1)CS2(=O)=O [Example Compound 46, 3,3-bis(phenylcarbamoyloxymethyl)-5-methyl-1,1-dioxo-1λ^6-thiochroman-4-one]
109.36	119.74	88.33				5.86		0.99		(7-methyl-4-oxothiochroman-3,3-diyl)bis(methylene)bis(phenylcarbamate) [Example Compound 39]
88.01	100.80	91.55								(7,8-dichloro-4-oxothiochroman-3,3-diyl)bis(methylene)bis(3-(trifluoromethyl)phenylcarbamate) [Example Compound 29]
94.65	44.38	80.26								(6-fluoro-4-oxothiochroman-3,3-diyl)bis(methylene)bis(3-(trifluoromethyl)phenylcarbamate) [Example Compound 30]
			58 to 63							O=C(Nc1cccc(C(F)(F)F)c1)OCC1(COC(=O)Nc2cccc(C(F)(F)F)c2)CSc2ccccc2C1=O [Example Compound 54, 3,3-bis(3-trifluoromethylphenylcarbamoyloxymethyl)thiochroman-4-one]
